Several values for one entry are separate records, joined by “and”; a condition that tells them apart may be missing. Equal values may be shown once. Toxic doses and inconclusive results are not listed. Cut-off read from the data, not from the text of the source: active = T/C of 150% or more; inactive = T/C below 125%.
Tested on: L1210 leukemia ip in BDF1 mice, survival T/C
Assay: NCI In Vivo Anticancer Drug Screen. Data for tumor model L1210 Leukemia (intraperitoneal) in B6D2F1 (BDF1) mice
Conditions: endpoint: mean survival time, higher = longer survival
How it was run: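 Read-out is survival time, reported as the treated-group measurement over the vehicle-control measurement.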

[1] = dose: 100.0 mg/kg/injection, schedule: Q04DX003 (ip), vehicle: Klucel (hydroxypropylcellulose) (HPC)
[2] = dose: 100.0 mg/kg/injection, schedule: Q01DX001 (ip), vehicle: saline
[3] = dose: 200.0 mg/kg/injection, schedule: Q01DX001 (ip), vehicle: saline
[4] = dose: 400.0 mg/kg/injection, schedule: Q01DX001 (ip), vehicle: saline
[5] = dose: 100.0 mg/kg/injection, schedule: Q01DX009 (ip), vehicle: saline with Tween-80
[6] = dose: 100.0 mg/kg/injection, schedule: Q04DX003 (ip), vehicle: saline with Tween-80
[7] = dose: 200.0 mg/kg/injection, schedule: Q01DX009 (ip), vehicle: saline with Tween-80
[8] = dose: 200.0 mg/kg/injection, schedule: Q04DX003 (ip), vehicle: saline with Tween-80
[9] = dose: 400.0 mg/kg/injection, schedule: Q04DX003 (ip), vehicle: saline with Tween-80
[10] = dose: 50.0 mg/kg/injection, schedule: Q04DX002 (ip), vehicle: Klucel (hydroxypropylcellulose) (HPC)
[11] = dose: 100.0 mg/kg/injection, schedule: Q04DX002 (ip), vehicle: Klucel (hydroxypropylcellulose) (HPC)
[12] = dose: 200.0 mg/kg/injection, schedule: Q04DX002 (ip), vehicle: Klucel (hydroxypropylcellulose) (HPC)
[13] = dose: 400.0 mg/kg/injection, schedule: Q01DX009 (ip), vehicle: saline with Tween-80

Measured: T/C

CCOC(=O)CCCCCCCCC(=O)Nc1ccc([N+](=O)[O-])cc1O
inactive: [1] 103 % of control | dose: 200.0 mg/kg/injection, schedule: Q04DX003 (ip), vehicle: Klucel (hydroxypropylcellulose) (HPC) 100 % of control | dose: 400.0 mg/kg/injection, schedule: Q04DX003 (ip), vehicle: Klucel (hydroxypropylcellulose) (HPC) 101 % of control

N#CC(c1ccccc1)C(c1ccccc1)c1ccccc1 (centres undefined)
inactive: dose: 50.0 mg/kg/injection, schedule: Q01DX001 (ip), vehicle: saline 102 % of control | [2] 102 % of control | [3] 98 % of control | [4] 98 % of control

C#CCSC(=S)NNc1ccccc1
inactive: [5] 95 % of control | [6] 101 % of control | [7] 97 % of control | [8] 97 % of control | [9] 93 % of control

CCOC(=O)Nc1cc2c(c(=O)[nH]1)N=C(CN(C)c1ccc(C(=O)OC)cc1)CN2
inactive: dose: 100.0 mg/kg/injection, schedule: Q01DX001 (ip), vehicle: alkali diluted with saline 104 % of control | dose: 200.0 mg/kg/injection, schedule: Q01DX001 (ip), vehicle: alkali diluted with saline 96 % of control | dose: 400.0 mg/kg/injection, schedule: Q01DX001 (ip), vehicle: alkali diluted with saline 102 % of control

CCOC(=O)C(C(C)=O)C(=O)OCC
inactive: dose: 25.0 mg/kg/injection, schedule: Q01DX009 (ip), vehicle: other 101 % of control | dose: 50.0 mg/kg/injection, schedule: Q01DX009 (ip), vehicle: other 103 % of control | dose: 100.0 mg/kg/injection, schedule: Q01DX009 (ip), vehicle: other 109 % of control | dose: 200.0 mg/kg/injection, schedule: Q01DX009 (ip), vehicle: other 100 % of control | dose: 400.0 mg/kg/injection, schedule: Q01DX009 (ip), vehicle: other 95 % of control

COc1ccc(-c2cc(-c3ccccc3)[nH]c(=O)c2N(C)C)cc1
inactive: dose: 100.0 mg/kg/injection, schedule: Q01DX001 (ip), vehicle: carboxymethylcellulose (CMC) 97 % of control | dose: 200.0 mg/kg/injection, schedule: Q01DX001 (ip), vehicle: carboxymethylcellulose (CMC) 91 % of control | dose: 400.0 mg/kg/injection, schedule: Q01DX001 (ip), vehicle: carboxymethylcellulose (CMC) 97 % of control

O=C(Nc1ccc(C(=O)c2ccccc2)cc1)Nc1ccc(C(=O)c2ccccc2)cc1
inactive: dose: 20.0 mg/kg/injection, schedule: Q01DX009 (ip), vehicle: saline with Tween-80 95 % of control | dose: 40.0 mg/kg/injection, schedule: Q01DX009 (ip), vehicle: saline with Tween-80 87 % of control | dose: 80.0 mg/kg/injection, schedule: Q01DX009 (ip), vehicle: saline with Tween-80 90 % of control | dose: 160.0 mg/kg/injection, schedule: Q01DX009 (ip), vehicle: saline with Tween-80 91 % of control | dose: 320.0 mg/kg/injection, schedule: Q01DX009 (ip), vehicle: saline with Tween-80 93 % of control

c1ccc(CSc2nccc(NN=C3CCCCC3)n2)cc1
inactive: dose: 25.0 mg/kg/injection, schedule: Q01DX001 (ip), vehicle: DMSO 90 % of control | dose: 50.0 mg/kg/injection, schedule: Q01DX001 (ip), vehicle: DMSO 88 % of control | dose: 75.0 mg/kg/injection, schedule: Q01DX009 (ip), vehicle: DMSO 92 % of control | dose: 100.0 mg/kg/injection, schedule: Q01DX001 (ip), vehicle: DMSO 88 % of control | dose: 150.0 mg/kg/injection, schedule: Q01DX009 (ip), vehicle: DMSO 94 % of control | dose: 200.0 mg/kg/injection, schedule: Q01DX001 (ip), vehicle: DMSO 91 % of control | dose: 400.0 mg/kg/injection, schedule: Q01DX001 (ip), vehicle: DMSO 100 % of control

Fc1ccc([P+]2(c3ccc(F)cc3)C=C(c3ccccc3)[P+](c3ccc(F)cc3)(c3ccc(F)cc3)C=C2c2ccccc2)cc1
inactive: dose: 12.5 mg/kg/injection, schedule: Q01DX001 (ip), vehicle: saline with Tween-80 100 % of control | dose: 25.0 mg/kg/injection, schedule: Q01DX001 (ip), vehicle: saline with Tween-80 98 % of control | dose: 50.0 mg/kg/injection, schedule: Q01DX001 (ip), vehicle: saline with Tween-80 100 % of control

COC(=O)C(Cc1ccccc1)NC(=O)C(COC1OC(COC(C)=O)C(OC(C)=O)C(OC(C)=O)C1NC(C)=O)NC(=O)OCc1ccccc1 (centres undefined)
inactive: [10] 101 % of control | [11] 104 % of control | [12] 101 % of control

OCC1C(CO)C2CC1C1N=NN(c3ccccc3)C21 (centres undefined)
inactive: dose: 100.0 mg/kg/injection, schedule: Q04DX002 (ip), vehicle: saline with Tween-80 93 % of control | dose: 200.0 mg/kg/injection, schedule: Q04DX002 (ip), vehicle: saline with Tween-80 90 % of control | dose: 400.0 mg/kg/injection, schedule: Q04DX002 (ip), vehicle: saline with Tween-80 93 % of control

O=C1c2ccccc2C(=O)N1CNc1ccc(Cc2ccc(NCN3C(=O)c4ccccc4C3=O)c(Cl)c2)cc1Cl
inactive: [5] 92 % of control | dose: 100.0 mg/kg/injection, schedule: Q04DX003 (ip), vehicle: saline 101 % of control | [7] 92 % of control | dose: 200.0 mg/kg/injection, schedule: Q04DX003 (ip), vehicle: saline 96 % of control | [13] 92 % of control | dose: 400.0 mg/kg/injection, schedule: Q04DX003 (ip), vehicle: saline 96 % of control

O=C1C(=O)c2cccc([N+](=O)[O-])c2-c2c1cccc2[N+](=O)[O-]
inactive: [2] 102 % of control | [3] 106 % of control | [4] 102 % of control

CCOC(=O)Nc1ccc(OC(=O)Oc2ccc(NC(=O)OCC)cc2)cc1
inactive: [2] 97 % of control | [3] 97 % of control | [4] 86 % of control

S=C(NCc1ccccc1)[S][Sb]([S]C(=S)NCc1ccccc1)[c]1ccccc1
inactive: dose: 5.0 mg/kg/injection, schedule: Q01DX001 (ip), vehicle: saline 88 % of control | dose: 10.0 mg/kg/injection, schedule: Q01DX001 (ip), vehicle: saline 109 % of control

CN(CC(O)COc1ccccc1)CC1CCCO1 (centres undefined)
inactive: dose: 25.0 mg/kg/injection, schedule: Q04DX003 (ip), vehicle: Klucel (hydroxypropylcellulose) (HPC) 98 % of control | dose: 50.0 mg/kg/injection, schedule: Q04DX003 (ip), vehicle: Klucel (hydroxypropylcellulose) (HPC) 97 % of control | [1] 95 % of control and 98 % of control

O=[N+]([O-])c1ccc(-c2ccc([N+](=O)[O-])c(-c3ccccc3)c2)cc1
inactive: [6] 93 % of control | [8] 88 % of control

Cc1cc([N+](=O)[O-])c2ccccc2c1N(CC(=O)O)S(=O)(=O)c1ccccc1
inactive: [5] 93 % of control | [6] 90 % of control | [7] 99 % of control | [8] 97 % of control | [13] 104 % of control | [9] 89 % of control

COC1OC(COC(c2ccccc2)(c2ccccc2)c2ccccc2)C(OC)C(OC(C)=O)C1OC(C)=O (centres undefined)
inactive: dose: 25.0 mg/kg/injection, schedule: Q04DX002 (ip), vehicle: Klucel (hydroxypropylcellulose) (HPC) 95 % of control | [10] 95 % of control | [11] 92 % of control | [12] 102 % of control | dose: 400.0 mg/kg/injection, schedule: Q04DX002 (ip), vehicle: Klucel (hydroxypropylcellulose) (HPC) 90 % of control

From PubChem BioAssay AID248 (DTP/NCI, 2004)
